Measured values reported in article PMC11096368, “Transcriptomic signature, bioactivity and safety of a non-hepatotoxic analgesic generating AM404 in the midbrain PAG region” (Scientific Reports, 2024).
“Also recorded” adds a separate entry of the source.

Columns and labels:
male Sprague–Dawley rats = assay: Pulmonary function evaluation in conscious rats (GLP); assay type: in vivo; conditions: oral, 220, 440, 660 mg/kg
Protocol: The potential effects of orally administered SRP-001 on respiratory rate, tidal volume, and minute volume in conscious male Sprague–Dawley rats was studied in 24 male rats. The rodents were trained for two days in the head-out plethysmograph chamber for 15–17 min each prior to the experiment. On the day of dosing, each animal was weighed and placed in the plethysmograph chamber, and baseline respiratory parameters were obtained for 5 min following an approximately 5-min stabilization period. The rats were then removed from the chamber and dosed by oral gavage. Three groups of six male Sprague–Dawley rats each were orally administered SRP-001 at a single dose of 220, 440, or 660 mg/kg at a dose volume of 10 mL/kg. […] Following dosing, each animal was returned to its designated plethysmograph chamber, and the respiratory parameters were recorded at 30 min (± 5 min), 2, 4, and 6 h (± 15 min). Animals were allowed to stabilize in the plethysmograph chamber for at least 5 min before each reading was taken. The following parameters were acquired, recorded, and analyzed using Ponemah Physiology Platform (Ponemah v.5.20 Pulmonary); Respiratory rate, Tidal Volume, and Minute Volume, Values for the test article treated group were compared to the vehicle control values using a two-way repeated measures ANOVA followed by a Bonferroni Multiple Comparison Test (SigmaStat, v. 4.0). […]

[1] = 5-day repeat-dose oral toxicity and toxicokinetic study (non-GLP); assay type: in vivo, rats; conditions: Sprague-Dawley, rat, blood, po
Protocol: As part of a two-phase study, repeat-dose toxicity and toxicokinetics of SRP-001, when administered via oral gavage once daily to Sprague–Dawley rats for 5 d, was done (Calvert Labs/Altasciences, Scott Township, PA USA). The doses selected for Phase II were based on the results of Phase I. SRP-001 was administered to 20 naïve rats (5/group in Groups 5–8) once daily for 5 days via oral gavage for toxicology evaluation and once to 18 naïve rats (6/group in Groups 9–11) for toxicokinetic evaluation.
Mortality/morbidity was performed twice daily and once prior to sacrifice. Clinical observations were evaluated prior to each dose administration and approximately 1–3 h post-dose for animals in Groups 5–8. Body weights were recorded prior to randomization/selection, prior to dose administration on day 1 for animals in Groups 5–11, and prior to dose administration on day 5 for Groups 5–8. Food consumption was recorded for animals from Groups 5–8 on day 5. Blood for evaluation of hematology, coagulation and clinical chemistry and urine for urinalysis was collected from animals in Groups 5–8 on day 6. All animals in Groups 5–8 were sacrificed on […]. Selected tissues were harvested at necropsy, selected organs weighed, and selected tissues preserved. Blood for toxicokinetic evaluation was collected from animals in Groups 9–11 at selected timepoints on day 1 to ensure comprehensive data capture. These timepoints include 0 h (pre-dose) and post-dose intervals of 1, 2, 4, 8, and 24 h on both Day 1 and […] of the study. This schedule allows for a robust assessment of SRP-001's pharmacokinetic profile, including absorption, distribution, metabolism, and excretion and is in line with current FDA-guidelines for GLP studies.
Clinical signs included soft feces, brown staining of the anogenital area, and a few instances of red staining of the muzzle. […] Half-lives were 6.19 and 6.86 h at mid and high doses, respectively. […] Based on these observations, SRP-001 was considered to be tolerated at 1200 mg/kg when administered once daily for 5 consecutive days.

beagle dogs = assay: 28-day oral toxicity study with 14-day recovery (GLP); assay type: in vivo, dog
Protocol: (§1) SRP-001 was supplied by Olon Ricerca Bioscience as an off-white powder. The test article was then prepared into dosing suspensions for oral administration via gavage (Calvert Labs/Altasciences, Scott Township, PA USA). Thirty-two experimentally naïve Beagle dogs (16 males and 16 females), 8–9 months old and weighing 6.7–10.5 kg for males and females at the outset of the study, were administered 0, 165, 330, or 495 mg/kg/d. Animals were dosed three times daily (3–5 h between doses) for 28 consecutive days. Prior to this dosing schedule, the dosing was initiated with once daily dosing at 0, 100, 300, or 900 mg/kg at a dose volume of 5 to 10 ml/kg. Due to adverse clinical signs noted following dosing of all groups at a dose volume of 10 ml/kg, dosing of the animals was suspended on day 2 for males and day 1 for females. The study was restarted with T.I.D. dosing in lower dose volume to reduce vehicle-related toxicity.
(§2) In-life data from the initial start of the study using once daily dosing were not included in the report but are maintained in the study file. Following the restart of the study, the study was conducted as follows. Mortality/morbidity was performed twice daily and once prior to the scheduled sacrifice. Animals were observed prior to each dose administration and 1–3 h after each dose administration. Animals were also observed once daily on non-dosing days and once prior to scheduled sacrifice. Body weights were recorded prior to randomization/selection, prior to the first dose administration on day 1 and weekly thereafter. Food consumption was determined daily. Ophthalmology examinations and electrocardiograms were performed before treatment initiation and during the last week of dosing. Blood for evaluation of hematology, coagulation and clinical chemistry and urine for urinalysis was collected prior to treatment initiation and on days 29 and 43. Blood for toxicokinetic evaluation was collected at selected timepoints on days 1 and 28. All surviving animals were sacrificed on day 29 or day 43. Selected tissues were harvested at necropsy, selected organs weighed, and selected tissues evaluated microscopically.
(§3) Due to the limited magnitude of the changes in hematology parameters and the corresponding changes in reticulocytes, this finding was not considered adverse.
(§4) This finding was indicative of the biliary system starting to be overwhelmed and was considered adverse. Other microscopic findings of the liver included Kupffer cell pigment, Kupffer cell erythrophagocytosis, and Kupffer cell hypertrophy/hyperplasia. The Kupffer cell changes were thought to be, at least in part, due to phagocytosis of erythrocytes resulting in the accumulation of cytoplasmic pigment and increased demand for Kupffer cells resulting in hypertrophy/hyperplasia. These microscopic changes correlated with increased liver organ weights. Microscopic evaluation also identified thyroid gland follicular cell hypertrophy.
(§5) Only microscopic changes in Kupffer cell pigment and erythrophagocytosis and minimal increased erythroid cellularity of the bone marrow were still present in Group-4 animals following the recovery period. Exposure to SRP-001 was dose-dependent and generally dose-proportional to greater than dose-proportional from 165 to 330 mg/kg/d and less than dose-proportional from 330 to 495 mg/kg/d. Exposure to SRP-001 following 28 consecutive days of oral dosing was 2 to 5 times less than exposure observed on day 1. Based on the clinical signs, microscopic changes, and clinical pathology changes, the no-adverse-effect level for SRP-001 was 330 mg/kg/d when given T.I.D. for 28 d.

[2] = as above; assay type: in vivo, dog; conditions: both sexes, Beagle, dog, in vivo, oral; given T.I.D. for 28 days; read-out: No adverse effect level (NOAEL)
Protocol: as §1, §2, §3, §4, §5

[3] = both, Beagle, dog, in vivo, po, 28 d

**Q.** With CCN(CC)C(=O)c1ccccc1S(=O)(=O)NCC(=O)Nc1ccc(O)cc1 [SRP-001, N,N-diethyl-2-[[2-(4-hydroxyanilino)-2-oxo-ethyl]sulfamoyl]benzamide] as the molecule, how does the “Respiratory findings (respiratory rate, tidal volume, minute volume)” value (male Sprague–Dawley rats) read?
**A.** The value was “did not induce any significant effects; also recorded: No significant findings”.

**Q.** What about the half-life ([1]; high dose) of the same molecule?
**A.** Its half-life is 6.86 h.

**Q.** What about the Tmax ([1]; low dose) of the same molecule?
**A.** Its Tmax is 3 h.

**Q.** And the Tmax ([1]; mid and high doses)?
**A.** The Tmax was 4.5 h.

**Q.** What about the half-life ([1]; mid dose) of the same molecule?
**A.** Its half-life is 6.19 h.

**Q.** And the “Body weights, food consumption, ophthalmology, electrocardiology, coagulation, urinalysis” value (beagle dogs; 28 days)?
**A.** The value was “No SRP-001 related changes”.

**Q.** What about the “Reversibility after 14-day recovery period” value (beagle dogs; both, Beagle, dog, in vivo, 14 d) of the same molecule?
**A.** The value was “nearly all SRP-001-related changes observed on day 29 were reversible”.

**Q.** And the “Doses without treatment-related adverse effects” value (beagle dogs; [3])?
**A.** The value was “up to 330 mg/kg/day”.

**Q.** And the “Exposure after 28 consecutive days relative to day 1” value (beagle dogs; [3])?
**A.** Its value is 2-5 times less.

**Q.** And the Clinical chemistry parameters (beagle dogs; dog, in vivo)?
**A.** The Clinical chemistry parameters was “increases in triglycerides and alkaline phosphatase and decreases in cholesterol”.

**Q.** What about the Clinical signs (beagle dogs; dog, in vivo) of the same molecule?
**A.** Its Clinical signs is “emesis, loose feces, and salivation”.

**Q.** What about the Hematology parameters (beagle dogs; dog, in vivo) of the same molecule?
**A.** The Hematology parameters was “decreases in red blood cells, hemoglobin, hematocrit, and mean corpuscular hemoglobin concentration”.

**Q.** What about the “Reversibility after 14-day recovery period” value (beagle dogs; dog, in vivo) of the same molecule?
**A.** Its value is “nearly all SRP-001 related changes observed on Day 29 were reversible”.

**Q.** And the NOAEL at 28 d [2]?
**A.** Its NOAEL at 28 d is 330 mg/kg/day.
